Earlier results as cited in patent US8093271B2, “Anti-acid pharmaceutical composition in powder form and process for making it” (Laboratorios Bago S.A., priority 2006, dated 2012).
Read-outs that look alike come from different tables or passages of the source.

What was measured:
[1] = in water

COc1ccc2[nH]c([S+]([O-])Cc3ncc(C)c(OC)c3C)nc2c1 (stereo not shown) [omeprazole]
time by which absorption is completed (absorption in the small intestine): 3 to 6 h
time required to reach the intestine (fasting state): 20 to 30 min
half life ([1]; pH near 7): about 14 hours
half life ([1]; pH of 4): lower than 10 minutes
